How the values were obtained:
[1] = target: T1, UCHL1 (Homo sapiens, UniProt P09936); assay: UCHL1 activity assay (Ub-Rho-Morpholine or Ub-AMC substrate); assay type: biochemical; conditions: UCHL1 1 nM, 1 h preincubation; read-out: UbRhoMP assay UCHL1 IC50
T1 sequence (P09936 1-223): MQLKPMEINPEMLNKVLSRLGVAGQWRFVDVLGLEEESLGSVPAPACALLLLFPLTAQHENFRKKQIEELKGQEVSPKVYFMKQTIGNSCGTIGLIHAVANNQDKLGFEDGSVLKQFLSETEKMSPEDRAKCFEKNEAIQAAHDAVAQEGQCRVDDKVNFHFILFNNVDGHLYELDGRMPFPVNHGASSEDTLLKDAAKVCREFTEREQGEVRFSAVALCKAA
Description: The assay was performed in a buffer containing 50 mM Tris·HCl, 100 mM NaCl at pH 7.5, 2.0 mM cysteine, 1 mg/mL 3-[(3-cholamidopropyl)dimethylammonio]propanesulfonic acid (CHAPS), and 0.5 mg/mL bovine serum albumin and conducted in a 384-well plate (Corning 3820) with a reaction volume 20 μL in triplicate. The compounds were dissolved in DMSO as 10, 1, and 0.1 mM stock solutions and were transferred to obtain a 12-point serial dilution of 0.05 to 200 μM. Next, UCHL1 (15 μL, final concentration of 1 nM) was dispensed with a Biotek MultiFlowFX liquid dispenser and incubated for 1 h, followed by dispensing the substrate Ub-Rho-Morpholine or Ub-AMC (5 μL, final concentration of 400 nM). The FI signal was monitored with a BMG Labtech PHERAstar plate reader (λex/em 487/535 nm or λex/em 350/450 nm) for 1 h. N-Ethylmaleimide (NEM, 10 mM) was used as a positive control (100% inhibition), and DMSO was used as a negative control (0% inhibition). All samples were normalized to the positive and negative controls and plotted against the inhibitor concentrations (in μM) using the built-in equation “[inhibitor] vs response – variable slope (four parameters), least-squares fit” with constraints “Bottom = 0” and “Top = 100” in GraphPad Prism 9.0.1 software to obtain the IC50 values.

[2] = target: T2, PARK7 (Homo sapiens, UniProt Q99497); assay: Probe labeling of purified recombinant PARK7 (SDS-PAGE, fluorescence scanning); assay type: binding; parameters: GST (N, cleaved yes); made in house; host or cells: E. coli BL21(DE3) Rosetta2; conditions: purified PARK7 1 μM, 1 h 37 °C; Figure 4A
T2 sequence (Q99497 1-189): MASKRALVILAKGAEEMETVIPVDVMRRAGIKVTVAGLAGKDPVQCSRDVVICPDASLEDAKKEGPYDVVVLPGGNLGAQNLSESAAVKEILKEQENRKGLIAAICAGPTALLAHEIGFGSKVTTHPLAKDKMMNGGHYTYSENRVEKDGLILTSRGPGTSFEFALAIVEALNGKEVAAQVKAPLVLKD
Description: PARK7 inhibitor JYQ-88 was further converted into activity-based probes by installing SulfoCy5, Rhodamine110, or BodipyFL. We took advantage of the azide moiety in JYQ-88 and conjugated alkyne versions of these dyes using the copper(I)-catalyzed azide alkyne cycloaddition (CuAAC) to obtain compounds JYQ-92, JYQ-93, and JYQ-107 (Scheme 2). We next investigated the ability of the probes to label and visualize PARK7. […] The SulfoCy5 probe JYQ-92 and Rhodamine110 probe JYQ-107 labeled PARK7 already at 1 μM, while the BodipyFL probe JYQ-93 was less efficient than the other probes as PARK7 labeling was only observed from 5 μM.
All the labeling assays were performed in Tris buffer (50 mM Tris–HCl, 150 mM NaCl, 2 mM TCEP, pH 7.5). For labeling with the 8RK59 probe, 1 μM final concentrations of UCHL1 and PARK7 were individually or together incubated with 2 μM final concentrations of 8RK59 for 30 min at 37 °C, followed by protein visualization. For labeling with JYQ-92, JYQ-93, and JYQ-107, 1 μM final concentration of PARK7 was incubated with different concentrations (0, 0.1, 0.5, 1, 2, 5, and 10 μM) of the indicated probes for 1 h at 37 °C. […] These samples were resolved by SDS-PAGE using precast Bis-Tris gels (Invitrogen, NuPAGE) with MES SDS running buffer (Novex, NuPAGE).

[3] = target: T2, PARK7; assay: FP binding saturation experiment, kinact/KI of probe JYQ-107; parameters: GST (N, cleaved yes); made in house; host or cells: E. coli BL21(DE3) Rosetta2; conditions: FP probe binding to PARK7 (0 to 5 μM); slope of kobs vs PARK7 concentration; Figure S6D
Description: First, the relation between the change in FP values for JYQ-107 binding to PARK7 was determined. We used a fixed concentration (20 nM) of JYQ-107, incubated it with different amounts of PARK7 (0 to 5 μM), and monitored the FP signal (λex/em 485/520 nm) over time (Supporting Information Figure S6A). The change in FP (ΔmP) was plotted against PARK7 concentration after different incubation times (Figure 5B, left, Supporting Information Figure S6B). […] The latter is expected, as covalent complex formation has a time-dependency, and thus, equilibrium binding values could not be determined for the FP reagent.[45] […] To this end, we calculated the Z’ value, a critical parameter used to assess the quality and HTS suitability of a given assay, for the used PARK7 concentrations and incubation times (Figure 5B, right, Supporting Information Figure S6C).[46] […]
This assay was performed in the buffer containing 50 mM Tris–HCl, 150 mM NaCl, 2 mM TCEP, pH 7.5, and 1 mg/mL CHAPS and conducted in a 384-well plate (Corning 3820) with a reaction volume 20 μL in triplicate. A serial dilution of PARK7 from 0 to 5 μM (final concentration) was mixed with constant concentration JYQ-107 ([…]), and the increasing FP signal over time was measured at λex/em 480/520 nm using a PHERAstar (BMG Labtech) for 150 min. […]

IC50 [1]: 18.5 µM
Probe concentration from which PARK7 labeling was observed [2]: 1 µM
kinact/KI [3]: 1180 M⁻¹ s⁻¹
SMILES: N#CN1CC[C@@H](C(=O)Nc2nc3c(s2)CN(C(=O)Cn2cc(CCCNC(=O)c4ccc(-c5c6ccc(=N)cc-6oc6cc(N)ccc56)c(C(=O)O)c4)nn2)CC3)C1 [JYQ-107]
